Patent US7432045B2 (priority 2003, dated 2008)
Where two headings read alike, the source gives them in different places. Peptide text beside a SMILES is read from it. * marks the point of attachment. code b = biotin-ε-aminohexanoyl, O=C(CCCC[C@@H]1SC[C@@H]2NC(=O)N[C@@H]21)NCCCCCC(=O)*; Biotin = O=C1N[C@H]2[C@H](CS[C@H]2CCCCC(=O)*)N1; Ahx = NCCCCCC(=O)O

Tests used:
[1] = test system: HSV-1 KOS mutant hrR3; assay: LacZ+ virus (hrR3) entry assay with pre-adsorbed virus (entry block); assay type: cell-based
Procedure: LacZ^+ virus (hrR3) entry assay: Confluent Vero cell cultures in 96-well microtiter plates were switched to Hepes-buffered serum-free DMEM, cooled on ice to 4° C. for 30 min, and infected with hrR3 for 1 hour at 4° C. in 40 μL of medium. Unattached virus was removed by rinsing with ice-cold medium. Treatments with antiviral peptide SEQ ID NO:1, referred to as EB, or a control peptide which comprised the RRKK tetra-peptide (SEQ ID NO:16) attached to a scrambled version of the membrane transiting peptide RRKKLAALPLVLAAPLAVLA (SEQ ID NO:17) (referred to as EBX), or mock-treatments with peptide-free medium were carried out in serum-free DMEM as indicated. Virus entry was initiated by transferring cultures to 37° C. To inactivate any remaining extracellular virus, cultures were rinsed with PBS and exposed to low pH citrate buffer (40 mM citric acid, 10 mM KCl, 135 mM NaCl, pH 3.0, according to Highlander et al., J. Virol. 61:3356 (1987), for 1 min at 23° C. The citrate was rinsed off with PBS and cultures were maintained in serum-supplemented DMEM until they were fixed with 0.5% gluteraldehyde in 5×PBS for 30 min at 23° C., stained for β-galactosidase activity for 1 hour or overnight at 23° C. with X-gal (Fisher Biotech; BP1615-1) in 1×PBS containing […], 1.3 mM K4Fe(CN)6, and 1.3 mM K3Fe(CN)6, and scored for the presence of blue […] cells.
In these studies, the hrR3 virus was pre-adsorbed to cells for 1 hour at 4° C. before ice cold 25 μM EB or EBX were added in serum-free DMEM. After an additional 1 hour at 4° C., cultures were shifted to 37° C. to initiate virus entry. At 15 min intervals following the temperature shift, any virus remaining outside the cells was inactivated by washing the cultures with low pH citrate buffer. Cultures were then rinsed and returned to peptide-free serum-supplemented DMEM until they were fixed and stained for β-galactosidase 8 hours after the temperature shift.
(§1) Two assays were used to assess the ability of the TAT peptides to inhibit infection of Vero cells with the hrR3 virus. In both assays, the virus was preadsorbed to cells at 4° C. and entry was initiated in the presence of peptide by shifting the cultures to a permissive temperature (30-37° C.). One hour later, the peptide was rinsed off. The entry blocking activity was measured in half of the cultures, in which any extracellular virus remaining after the peptide treatment was inactivated with low pH citrate buffer. The rest of the cultures were exposed to PBS instead of citrate buffer and used to measure virus inactivation. Virus inactivation depended on persistent effects of the peptide lasting for a period of eight hours. At the end of that period, all cultures were fixed and infected cells were detected by staining with X-gal.
(§2) Virus (m.o.i.=0.025) was preadsorbed to Vero cells for 1 h at 4° C. before cultures were exposed to TAT-C (FIG. 15A), bTAT-9X (FIG. 15B), or n50,51TAT-C (FIGS. 15C, 15D) for 1 h at 33 (FIGS. 15A, 15B), 31 (FIG. 15C), or 37° C. (FIG. 15D). […] Inhibition of entry was measured in the citrate-treated cultures, in which any remaining external virus was inactivated immediately following exposure to peptide (●). Persistent virus inactivation lasting, at least in part, for the 8 h period following exposure to peptide, was measured in the PBS-treated cultures (◯). The IC50s measured in these experiments are included in Table 5.

[2] = in vitro; conditions: African green monkey
[3] = test system: HSV-1 KOS mutant hrR3; assay: Inactivation of pre-adsorbed virus (virus inactivation); assay type: cell-based; conditions: 33° C.; read-out: Virus Inactivation IC50 (pre-adsorbed virus)
Procedure: as §1, §2

[4] = test system: Vero, HeLa, CV-1PD, TM-1, DP-9, CEMx174, NIKS, W12E cells; assay: MTS assay, eight cell lines; conditions: eight cell lines
[5] = test system: hrR3; assay: Virucidal assay; assay type: cell-based, HSV-1
Procedure: […] The treated virus was diluted 200-fold with serum-supplemented DMEM and assayed for infectivity approximately 1 hour later in microtiter wells seeded with Vero cells (3.5×10^4 cells/well) 1 d earlier. Forty or 100 microliter volumes of diluted virus were adsorbed for 1 or 2 h at 37° C. and lacZ^+ cells were scored 8 hours later. In some experiments, aliquots of diluted virus were first dialyzed (Spectra/Por; MWCO 12-14,000) overnight at 4° C. against a 60-fold excess volume of Hepes-buffered serum-supplemented DMEM or forced by syringe through 0.22 μm membranes (Millex-GV; Millipore) before the remaining infectious virus was assayed.

[6] = test system: HSV-1 KOS mutant hrR3; conditions: read-out: post-entry effects IC50; peptide added after citrate treatment, 8 h
[7] = 33° C., read-out: Entry Block IC50

## CC(C)C[C@H](NC(=O)CCCCCNC(=O)CCCC[C@@H]1SC[C@@H]2NC(=O)N[C@@H]21)C(=O)N[C@@H](C)C(=O)N[C@@H](C)C(=O)N[C@@H](CC(C)C)C(=O)N1CCC[C@H]1C(=O)N[C@@H](CC(C)C)C(=O)N[C@H](C(=O)N[C@@H](CC(C)C)C(=O)N[C@@H](C)C(=O)N[C@@H](C)C(=O)N1CCC[C@H]1C(=O)N[C@@H](CC(C)C)C(=O)N[C@@H](C)C(=O)N[C@H](C(=O)N[C@@H](CC(C)C)C(=O)N[C@@H](C)C(=O)N1CCC[C@H]1C(=O)NCC(=O)N[C@@H](CCCNC(=N)N)C(=O)N[C@@H](CCCCN)C(=O)N[C@@H](CCCCN)C(=O)N[C@@H](CCCNC(=N)N)C(=O)N[C@@H](CCCNC(=N)N)C(=O)N[C@@H](CCC(N)=O)C(=O)N[C@@H](CCCNC(=N)N)C(=O)N[C@@H](CCCNC(=N)N)C(=O)N[C@@H](CCCNC(=N)N)C(=O)N[C@@H](CS)C(N)=O)C(C)C)C(C)C [b17TAT-C] ({Biotin-Ahx}-LAALPLVLAAPLAVLAPGRKKRRQRRRC-NH2)
[1]; [7]
  IC50: 5.4 µM
[2]
  IC50: ~200 µM
[3]
  IC50: 9.4 µM

## CC[C@H](C)[C@H](NC(=O)[C@H](CCCCN)NC(=O)[C@@H](NC(=O)[C@H](CCC(N)=O)NC(=O)[C@H](CCCNC(=N)N)NC(=O)CCCCCNC(=O)CCCC[C@@H]1SC[C@@H]2NC(=O)N[C@@H]21)[C@@H](C)CC)C(=O)N[C@@H](Cc1ccccc1)C(=O)N[C@@H](Cc1ccccc1)C(=O)N1CCC[C@H]1C(=O)N[C@@H](CC(N)=O)C(=O)N[C@@H](CCCNC(=N)N)C(=O)N[C@@H](CCCNC(=N)N)C(=O)N[C@@H](CCSC)C(=O)N[C@@H](CCCCN)C(=O)N[C@@H](Cc1ccccc1)C(=O)N[C@@H](CCCCN)C(=O)N[C@@H](CCCCN)C(N)=O [bHOMFF, b - RQIKI F FPNRRMK F KK-amide] ({Biotin-Ahx}-RQIKIFFPNRRMKFKK-NH2)
[2]
  IC50: > 100 µM
[4]
  cytotoxicity to cells (MTS), overall: generally not cytotoxic

## CC(C)C[C@H](NC(=O)[C@H](C)NC(=O)[C@H](CC(C)C)NC(=O)[C@H](CC(C)C)NC(=O)[C@@H](NC(=O)[C@H](C)NC(=O)[C@@H]1CCCN1C(=O)[C@H](CC(C)C)NC(=O)[C@H](CC(C)C)NC(=O)[C@H](C)NC(=O)[C@@H](NC(=O)[C@H](C)NC(=O)[C@H](C)NC(=O)[C@H](CCCCN)NC(=O)[C@H](CCCCN)NC(=O)[C@H](CCCNC(=N)N)NC(=O)[C@H](CCCNC(=N)N)NC(=O)CCCCCNC(=O)CCCC[C@@H]1SC[C@@H]2NC(=O)N[C@@H]21)C(C)C)C(C)C)C(=O)N[C@@H](CC(C)C)C(=O)N[C@@H](C)C(=O)N1CCC[C@H]1C(=O)O [bEB] ({Biotin-Ahx}-RRKKAAVALLPAVLLALLAP-OH)
[2]
  IC50: 100 µM

## b - KLALKLALKALKAALKLA-amide ({code b}-KLALKLALKALKAALKLA-NH2; SMILES CC(C)C[C@H](NC(=O)[C@H](C)NC(=O)[C@H](CCCCN)NC(=O)[C@H](CC(C)C)NC(=O)[C@H](C)NC(=O)[C@H](CC(C)C)NC(=O)[C@H](CCCCN)NC(=O)[C@H](CC(C)C)NC(=O)[C@H](C)NC(=O)[C@H](CC(C)C)NC(=O)[C@H](CCCCN)NC(=O)CCCCCNC(=O)CCCC[C@@H]1SC[C@@H]2NC(=O)N[C@@H]21)C(=O)N[C@@H](CCCCN)C(=O)N[C@@H](C)C(=O)N[C@@H](C)C(=O)N[C@@H](CC(C)C)C(=O)N[C@@H](CCCCN)C(=O)N[C@@H](CC(C)C)C(=O)N[C@@H](C)C(N)=O) [bKLAd11,12]
[1]; read-out: Entry Blocking Activity IC50
  IC50: 23 µM
[5]; 4° C., read-out: Virucidal Activity 4° C. IC50
  IC50: 300 µM
[5]; 37° C., read-out: Virucidal Activity 37° C. IC50
  IC50: 61 µM

## N=C(N)NCCC[C@H](NC(=O)CNC(=O)CCCCCNC(=O)CCCC[C@@H]1SC[C@@H]2NC(=O)N[C@@H]21)C(=O)N[C@@H](CCCCN)C(=O)N[C@@H](CCCCN)C(=O)N[C@@H](CCCNC(=N)N)C(=O)N[C@@H](CCCNC(=N)N)C(=O)N[C@@H](CCC(N)=O)C(=O)N[C@@H](CCCNC(=N)N)C(=O)N[C@@H](CCCNC(=N)N)C(=O)N[C@@H](CCCNC(=N)N)C(=O)N[C@@H](CS)C(N)=O [bTAT-C, b-GRKKRRQRRRC-amide]
[1]; [7]
  IC50: 5.8 µM
[6]
  IC50: 175 µM
[3]
  IC50: 27 µM

## CC(C)C[C@H](NC(=O)[C@@H](NC(=O)[C@H](C)NC(=O)[C@H](CC(C)C)NC(=O)[C@@H]1CCCN1C(=O)[C@H](C)NC(=O)[C@H](C)NC(=O)[C@H](CC(C)C)NC(=O)[C@@H](NC(=O)[C@H](CC(C)C)NC(=O)[C@@H]1CCCN1C(=O)[C@H](CC(C)C)NC(=O)[C@H](C)NC(=O)[C@H](C)NC(=O)[C@H](CC(C)C)NC(=O)[C@@H]1CCCN1C(=O)[C@H](CCCNC(=N)N)NC(=O)[C@H](CCCNC(=N)N)NC(=O)[C@H](CCCNC(=N)N)NC(=O)[C@H](CCC(N)=O)NC(=O)[C@H](CCCNC(=N)N)NC(=O)[C@H](CCCNC(=N)N)NC(=O)[C@H](CCCCN)NC(=O)[C@H](CCCCN)NC(=O)[C@H](CCCNC(=N)N)NC(=O)CNC(=O)[C@H](Cc1ccc(O)cc1)NC(=O)CCCCCNC(=O)CCCC[C@@H]1SC[C@@H]2NC(=O)N[C@@H]21)C(C)C)C(C)C)C(=O)N[C@@H](C)C(=O)O [bTAT-17] ({Biotin-Ahx}-YGRKKRRQRRRPLAALPLVLAAPLAVLA-OH)
[1]; [7]
  IC50: 2.4 µM
[2]
  IC50: ~200 µM
[3]
  IC50: 6.6 µM

## CC(C)C[C@H](NC(=O)CCCCCNC(=O)CCCC[C@@H]1SC[C@@H]2NC(=O)N[C@@H]21)C(=O)N[C@@H](C)C(=O)N[C@H](C(=O)N[C@@H](CC(C)C)C(=O)N[C@@H](C)C(=O)N1CCC[C@H]1C(=O)NCC(=O)N[C@@H](CCCNC(=N)N)C(=O)N[C@@H](CCCCN)C(=O)N[C@@H](CCCCN)C(=O)N[C@@H](CCCNC(=N)N)C(=O)N[C@@H](CCCNC(=N)N)C(=O)N[C@@H](CCC(N)=O)C(=O)N[C@@H](CCCNC(=N)N)C(=O)N[C@@H](CCCNC(=N)N)C(=O)N[C@@H](CCCNC(=N)N)C(=O)N[C@@H](CS)C(N)=O)C(C)C [b6TAT-C, b-LAVLAPGRKKRRQRRRC-amide] ({Biotin-Ahx}-LAVLAPGRKKRRQRRRC-NH2)
[1]; [7]
  IC50: 5.3 µM
[6]
  IC50: 190 µM
[3]
  IC50: 25 µM

## CC(C)C[C@H](NC(=O)[C@@H](NC(=O)[C@H](C)NC(=O)[C@H](CC(C)C)NC(=O)[C@@H]1CCCN1C(=O)[C@H](C)NC(=O)[C@H](C)NC(=O)[C@H](CC(C)C)NC(=O)[C@@H](NC(=O)[C@H](CC(C)C)NC(=O)[C@@H]1CCCN1C(=O)[C@H](CC(C)C)NC(=O)[C@H](C)NC(=O)[C@H](C)NC(=O)[C@H](CC(C)C)NC(=O)[C@@H]1CCCN1C(=O)[C@H](CCCNC(=N)N)NC(=O)[C@H](CCCNC(=N)N)NC(=O)[C@H](CCCNC(=N)N)NC(=O)[C@H](CCC(N)=O)NC(=O)[C@H](CCCNC(=N)N)NC(=O)[C@H](CCCNC(=N)N)NC(=O)[C@H](CCCCN)NC(=O)[C@H](CCCCN)NC(=O)[C@H](CCCNC(=N)N)NC(=O)CN)C(C)C)C(C)C)C(=O)N[C@@H](C)C(=O)O [TAT-17] (H-GRKKRRQRRRPLAALPLVLAAPLAVLA-OH)
[1]; [7]
  IC50: 2.4 µM
[2]
  IC50: ~200 µM
[3]
  IC50: 8.3 µM
